{"source": "patent US20200121801A1", "about": "“DRUG DELIVERY CONJUGATES CONTAINING UNNATURAL AMINO ACIDS AND METHODS FOR USING” (priority 2012, published 2020)", "key": {"[1]": {"target": "T1, folate receptors (FR) on CHO-FRβ cells (Homo sapiens, UniProt P14207)", "T1 construct": "expressed in transfected cells; host or cells: CHO cells (CHO-FRβ)", "T1 sequence (P14207 17-230)": "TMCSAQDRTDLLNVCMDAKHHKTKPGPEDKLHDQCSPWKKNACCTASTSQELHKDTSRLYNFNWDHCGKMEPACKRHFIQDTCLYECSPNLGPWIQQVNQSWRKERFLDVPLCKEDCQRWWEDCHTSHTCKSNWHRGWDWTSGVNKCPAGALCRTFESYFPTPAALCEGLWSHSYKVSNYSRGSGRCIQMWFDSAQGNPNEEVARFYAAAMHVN", "test": "Relative affinity assay (3H-folic acid competition) on CHO-FRβ cells", "type": "binding", "conditions": "1 h at 37° C."}, "[2]": {"test_system": "adjuvant-induced arthritis", "test": "Adjuvant-induced arthritis (AIA) model", "procedure": "METHOD. Adjuvant-Induced Arthritis (AIA) Model. Female Lewis rats are fed a folate-deficient diet (Harlan Teklad, Indianapolis, Ind.) for 9-10 days prior to arthritis induction. The adjuvant-induced arthritis (AIA) is induced by intradermal inoculation (at the base of tail) of 0.4-0.5 mg of heat-killed Mycobacteria butyricum (BD Diagnostic Systems, Sparks, Md.) in 100 μL light mineral oil (Sigma). Ten days after arthritis induction, paw edema (degree of arthritis) in rats is assessed using a modified arthritis scoring system: 0=no arthritis; 1=swelling in one type of joint; 2=swelling in two types of joint; 3=swelling in three types of joint; 4=swelling of the entire paw. A total score for each rat is calculated by summarizing the scores for each of the four paws, giving a maximum score of 16 for each rat. On Day 10 post arthritis induction, rats with a total arthritis score of […] were removed from the study and the remaining rats are distributed evenly across the control and treatment groups (n=5 for all groups except that n=2-3 for healthy controls). All treatments are started on Day 10 unless indicated otherwise. Rat paws are also evaluated radiographically to assess and determine bone damage.\nEXAMPLE. […] Starting 9 days after induction, rats with developing AIA are distributed according to arthritis scores into three groups (n=5): (1) the untreated AIA control, (2) the EC1669 treated group, and (3) the EC1669 plus EC0923 competition group. All treatments last for 2 consecutive weeks. The animals in the AIA control group are left untreated. The animals in the EC1669 treatment group are given twice-a-week subcutaneous doses of EC1669 at a dosage of 375 nmol/kg. The animals in the EC1669 plus EC0923 group are given twice-a-week subcutaneous doses of EC1669 at a dosage of 375 nmol/kg in conjunction to EC0923 at a dosage of 187.5 μmol/kg.\nEXAMPLE. […] CellCept is a prodrug of mycophenolic acid, an immunosuppressant drug used to prevent organ rejection in transplantation. CellCept is activated in vivo and releases its active product that can inhibit T cell proliferation and interfere with leukocyte adhesion to endothelial cells. To test the combination effect of EC1669 and CellCept, rats with developing AIA are distributed according to arthritis scores into four groups (n=5): (1) the untreated AIA control, (2) the EC1669 treated group, (3) the CellCept treated group, and (4) the EC1669 and CellCept combination group. All treatments start on day 9 after AIA induction and last 2 consecutive weeks. The animals in the AIA control group are untreated. The animals in the EC1669 treatment group are given weekly subcutaneous doses of EC1669 at a dosage of 1000 nmol/kg. The animals in the CellCept treatment group are given daily oral doses of CellCept at a dosage of 30 mg/kg, 5 days per week. The animals in the EC1669 and CellCept combination treatment group are given weekly subcutaneous doses of EC1669 at a dosage of 1000 nmol/kg and daily oral doses of CellCept at a dosage of 30 mg/kg, 5 days per week."}, "[3]": {"test_system": "experimental autoimmune uveitis", "test": "Experimental autoimmune uveitis (EAU) model", "protocol": "Animal Experimental Autoimmune Uveitis Model. Experimental autoimmune uveitis (EAU) is induced in female Lewis rats maintained on a folate-deficient diet (Harlan Teklad, Indianapolis, Ind.). On Day 0, the animals are immunized subcutaneously with 25 μg of bovine S-Ag PDSAg peptide formulated with Freund's incomplete adjuvant containing 0.5 mg of grounded M. Tuberculosis H37Ra. Purified pertussis toxin (PT) is given at a dosage of 1 μg per animal on the same day via intraperitoneal injection. The severity of uveitis in each eye is assessed by a qualitative visual score system: 0=No disease, eye is translucent and reflects light (red reflex); 0.5 (trace)=Dilated blood vessels in the iris, 1=Engorged blood vessels in iris, abnormal pupil contraction; 2=Hazy anterior chamber, decreased red reflex; 3=Moderately opaque anterior chamber, but pupil still visible, dull red reflex; and 4=Opaque anterior chamber and obscured pupil, red reflex absent, proptosis. This assessment yields a maximum uveitis score of 8 per animal.\nAll treatments start on day 8 after EAU induction. The animals in the EAU control group are untreated. […] The uveitis score and animal body weight are recorded for each animal at predetermined frequencies. The clinical severity of EAU is monitored on a daily basis using an ophthalmoscope and graded on a scale of 0 to 4 per eye with a maximum possible score of 8 per animal. […]"}, "[4]": {"conditions": "375 nmol/kg s.c. twice-a-week, 2 weeks"}}}
{"smiles": "N=c1[nH]c(N)nc2ncc(CNc3ccc(C(=O)N[C@@H](CCC(=O)NNC(=O)OCCSSC[C@@H](NC(=O)[C@H](CCC(=O)NC[C@H](O)[C@@H](O)[C@H](O)[C@H](O)CO)NC(=O)[C@@H](CCC(=O)O)NC(=O)[C@H](CCC(=O)NC[C@H](O)[C@@H](O)[C@H](O)[C@H](O)CO)NC(=O)[C@@H](CCC(=O)O)NC(=O)[C@H](CCC(=O)NC[C@H](O)[C@@H](O)[C@H](O)[C@H](O)CO)NC(=O)CC[C@H](NC(=O)c4ccc(NCc5cnc6nc(N)[nH]c(=O)c6n5)cc4)C(=O)O)C(=O)O)C(=O)O)cc3)nc12", "note": "[EC1669]", "values": [{"measurement": "relative affinity (normalized against folic acid, set to 1)", "setting": "[1]", "value": 0.13}, {"measurement": "reduction in paw swelling", "setting": "[2]; 250 nmol/kg, biw", "value": 64, "unit": "%"}, {"measurement": "whole animal toxicity (body weight)", "setting": "[2]; 375 nmol/kg", "value": "does not exhibit whole animal toxicity"}, {"measurement": "alleviation of bone damage compared to control", "setting": "[2]; [4]", "value": "~80", "unit": "%"}, {"measurement": "alleviation of paw swelling compared to control", "setting": "[2]; [4]", "value": "~80", "unit": "%"}, {"measurement": "reduction in paw swelling", "setting": "[2]; 500 nmol/kg, biw", "value": 81, "unit": "%"}, {"measurement": "reduction in paw swelling", "setting": "[2]; 1000 nmol/kg, siw", "value": 44, "unit": "%"}, {"measurement": "anti-arthritic activity with folate competitor EC0923", "setting": "[2]; EC0923 187.5 μmol/kg co-dosed", "value": "competable (blocked)"}, {"measurement": "symptoms of EAU (uveitis score)", "setting": "[3]; 250 nmol/kg s.c. q2d, five doses from day 8", "value": "effectively reduces the symptoms of EAU"}, {"measurement": "treatment-related weight loss / whole animal toxicity", "setting": "[3]; rat, in vivo", "value": "does not cause whole animal toxicity"}]}
